Measurements: patent US20240197666A1, “DITERPENOID COMPOUNDS THAT ACT ON PROTEIN KINASE C (PKC)” (K-Gen Therapeutics, Inc., priority 2021, published 2024)
Several values for one entry are separate records, joined by “and”; a condition that tells them apart may be missing. Identical values can stand only once. Like-named read-outs stand apart in the source and are kept apart here.

What was measured:
A549 cell line = assay: Proliferation of A549 (CellTiter Glo); assay type: cell-based; conditions: read-out: IC50 μM (A549 Cell Line)
Protocol: (§1) The diterpenoid compounds were tested in A549, a non-small cell lung cancer cell line harboring a K-Ras activating mutation. Briefly, A549 cells at a density of 1,000 cells/well were seeded in 96-well plates and incubated at 37° C. for 24 hours. A series of different concentrations of compound stocks (500×) were prepared by 3-fold serial dilution in DMSO. These compounds were further diluted in culture media and then added to cells so that the final DMSO concentration was not exceeding 0.25%. After 96 hours of incubation, 50 μL of CellTiter Glo reagent (Promega) was added to each well and luminescence was measured after 10 minutes using EnVision (PerkinElmer). Luminescence from cells treated with DMSO alone was set as Max and % of inhibition was calculated as follows: Inhibition %=(Max-Sample value)/Max×100. Data was analyzed using XL-fit software (ID Business Solutions Ltd.) and IC50, relative IC50, and % of top inhibition was calculated. Some of the compounds in this disclosure were very potent in blocking proliferation of A549 lung cancer cells at low nM range. In addition, potency of inhibiting A549 proliferation correlated well with its binding affinity to PKCs for this series of compounds. In other words, higher affinity binders had stronger inhibitory effects on A549 proliferation. This further support the notion that activation, rather than inhibition, of certain PKC isoforms is required to block proliferation of cancer cells, some of which may harbor K-Ras mutations. This is in sharp contrast to previous literature and common belief that inhibition of PKC is necessary to block cancer cell growth (Kang, 2014, New Journal of Science, 2014:1-36). Data presented here is in agreement with recent findings that many loss-of-function but not gain-of-function mutations of PKC isoforms have been identified in many human cancers (Antal et al., 2015, Cell, 160:489-502).

Panc2.13 (Pancreatic) = assay: Proliferation of Panc2.13; assay type: cell-based
Protocol: as §1
(§2) The compounds in this disclosure were tested for their potency in blocking proliferation of a few other cancer cells lines, including K-Ras mutant pancreatic cell lines Panc2.13 and KP-4, leukemia cell line HL-60, and lymphoma cell lines Namalwa and Mino. Similar procedures as in Example 67 were followed. Initial cell numbers seeded in 96-well plates were different for different cell lines: 3000 cells/well for Panc2.13; 800-1000 cells/well for KP-4; 5000 cells/well for HL-60; 5000-10000 cells/well for Namalwa and Mino. A ratio of (IC50 of K101)/(IC50 of compound) (data in parenthesis in Table 5) was used to normalize the compound potency from different assay batches to a common comparator K101.

KP-4 (Pancreatic) = assay: Proliferation of KP-4; assay type: cell-based; conditions: 96 h; read-out: IC50 KP-4 (Pancreatic)
Protocol: as §1, §2

HL-60 (Leukemia) = assay: Proliferation of HL-60; assay type: cell-based; conditions: for IC50: Homo sapiens, HL-60, read-out: IC50 HL-60 (Leukemia)
Protocol: as §1, §2

Namalwa (Lymphoma) = assay: Proliferation of Namalwa; assay type: cell-based; conditions: for IC50: read-out: IC50 Namalwa (Lymphoma)
Protocol: as §1, §2

Mino (Lymphoma) = assay: Proliferation of Mino; assay type: cell-based; conditions: for IC50: Homo sapiens, MINO, read-out: IC50 Mino (Lymphoma)
Protocol: as §1, §2

[1] = tested on: NFκB-driven transcription in HeLa-NFκB luciferase reporter cell line; assay: NFκB luciferase reporter assay; conditions: Homo sapiens, HeLa, 16 h, read-out: NFκB-luc HeLa cells EC50 (μM)
CT26 tumors = assay: CT26 tumor after single dose intratumoral treatment, H&E stain and CD31 IHC; assay type: in vivo, mouse; conditions: for CD31 IHC (counts per mm^2) / H&E Necrotic tumor area (%): individual tumors
Protocol: Method. Each 6-8 weeks old female Balb/c mouse was implanted with 3×10^5 CT26 mouse colon cancer cells in one flank for tumor development. When the average tumor volume reached 95 mm^3, 21 mice were randomized into different groups and were treated via a single IT injection (20 uL) according to the group assignment (different dose and treatment duration) in the table below. Tumors were harvested at 1h, 7h, or 24h post IT injection, and then fixed and processed for paraffin embedding.
Paraffin blocks were sectioned into […] sections using Leica RM2235 microtome. One section was stained for Hematoxylin-Eosin (H&E) using Leica ST5020-CV5030 stainer integrated workstation according to the Manufacture's procedure. Photos were taken using Nikon DS-Ri2. Another section was processed for IHC staining with the CD31 antibody (BD, Cat #550274) at 1:10 dilution. The stained slides were scanned using Leica Aperio VERSA 8 and the images were analyzed using HALO image analysis software system (Indica Labs).

C1b domain of human PKCδ = target: T1, C1b domain of human PKCδ (Homo sapiens, UniProt Q05655); assay: biochemical; assay type: binding; conditions: 3H-PDBu competition
T1 construct: Genes encoding C1b domains of human PKCα, δ, ε, θ, and PKD1 (PKCμ) were synthesized; made in house; host or cells: E. coli BL21(DE3)
T1 sequence (Q05655 230-280 limits assumed): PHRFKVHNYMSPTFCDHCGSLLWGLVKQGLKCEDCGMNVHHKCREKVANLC
Protocol: (§3) Compounds described in this disclosure were tested for binding affinity to C1b domain of PKC isoforms. Compound binding affinity to C1b domain of PKC isoforms was derived from competitive binding assay using radioactive tracer ^3H-PDBu and recombinant GST-C1b or full-length of human PKC proteins based on modified procedures from Methods in Molecular Biology, vol.
(§4) Genes encoding C1b domains of human PKCα, δ, ε, θ, and PKD1 (PKCμ) were synthesized and inserted into pGEX-2TK or pGEX-4T1 vectors for expression and production of GST-C1b proteins in E. coli BL21(DE3) via IPTG induction. The target proteins were purified by glutathione sepharose 4B and followed by ion exchange chromatography if needed to achieve purity >70%. Aliquots of the purified proteins were stored at −80 degree for binding assay (storage buffer: 20 mM Tris pH 8.0, 200 mM NaCl, 10% glycerol, 1 mM DTT).
(§5) The plate was incubated at 37° C. on a shaker at 300 rpm for 10 minutes and then put on ice for 20 minutes. […] The bottom of the filter plate was sealed and 50 μL of MicroScint-20 (PerkinElmer) cocktail was added to each well. ^3H-PDBu trapped in each well was counted using PerkinElmer MicroBeta2 Reader. Data were analyzed using GraphPad Prism5 with the model “log(inhibitor) vs. response-variable slope” to fit the IC50, and then IC50 was transformed to Ki using Cheng-Prusoff equation: Ki=IC50/(1+added radio ligand/Kd). Kd is the binding affinity of each protein preparation to ^3H-PDBu, determined experimentally.

C1b domain of human PKCε = target: T2, C1b domain of human PKCε (Homo sapiens, UniProt Q02156); assay: biochemical; assay type: binding; conditions: 3H-PDBu competition
T2 construct: Genes encoding C1b domains of human PKCα, δ, ε, θ, and PKD1 (PKCμ) were synthesized; made in house; host or cells: E. coli BL21(DE3)
T2 sequence (Q02156 242-292 limits assumed): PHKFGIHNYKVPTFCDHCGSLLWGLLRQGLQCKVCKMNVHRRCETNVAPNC
Protocol: as §3, §4, §5

C1b domain of human PKCθ = target: T3, C1b domain of human PKCθ (Homo sapiens, UniProt Q04759); assay: biochemical; assay type: binding; conditions: 3H-PDBu competition
T3 construct: Genes encoding C1b domains of human PKCα, δ, ε, θ, and PKD1 (PKCμ) were synthesized; made in house; host or cells: E. coli BL21(DE3)
T3 sequence (Q04759 231-281 limits assumed): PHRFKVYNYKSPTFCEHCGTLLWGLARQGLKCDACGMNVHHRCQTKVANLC
Protocol: as §3, §4, §5

[2] = target: T4, C1b domain of human PKD1 (PKCμ) (Homo sapiens, UniProt Q15139); assay: Competitive 3H-PDBu binding assay, C1b domain of PKD1 (PKCμ); conditions: 3H-PDBu competition
T4 construct: Genes encoding C1b domains of human PKCα, δ, ε, θ, and PKD1 (PKCμ) were synthesized; made in house; host or cells: E. coli BL21(DE3)
T4 sequence (Q15139 270-320 limits assumed): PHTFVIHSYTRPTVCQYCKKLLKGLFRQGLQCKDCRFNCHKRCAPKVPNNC
Protocol: as §3, §4, §5

| SMILES | IC50 (A549 cell line; Homo sapiens, A549, 96 h) [µM] | ratio (IC50 of K101)/(IC50 of compound) HL-60 (HL-60 (Leukemia)) | IC50 (HL-60 (Leukemia)) [nM] | ratio (IC50 of K101)/(IC50 of compound) Namalwa (Namalwa (Lymphoma)) | IC50 (Namalwa (Lymphoma)) [nM] | ratio (IC50 of K101)/(IC50 of compound) Mino (Mino (Lymphoma)) | IC50 (Mino (Lymphoma)) [nM] | EC50 [1] [µM] | Ki (C1b domain of human PKCδ) [nM] | Ki (C1b domain of human PKCε) [nM] | Ki (C1b domain of human PKCθ) [nM] | other results |
| --- | --- | --- | --- | --- | --- | --- | --- | --- | --- | --- | --- | --- |
| CC1=C[C@H]2[C@@]3(O)[C@H](C)C[C@]4(OC(=O)[C@@H](N)Cc5ccc(C(F)(F)F)cc5)[C@H]([C@@H]3C=C(CO)C[C@]2(O)C1=O)C4(C)C | 0.06 to 0.1 | 6.43 | 30 to 60 | 1.68 | 30 to 60 | 6.2 | 10 to 30 | 0.06 to 0.1 |  |  |  | ratio (IC50 of K101)/(IC50 of compound) Panc2.13 (Panc2.13 (Pancreatic)): 6.79; IC50 (Panc2.13 (Pancreatic); read-out: IC50 Panc2.13 (Pancreatic)): 100 to 200 nM; IC50 (KP-4 (Pancreatic)): 100 to 600 nM |
| CC1=C[C@H]2[C@@]3(O)[C@H](C)C[C@]4(OC(=O)[C@H](N)CCCCCCc5ccccc5)[C@H]([C@@H]3C=C(COC(=O)[C@@H](N)C(C)C)C[C@]2(O)C1=O)C4(C)C |  |  |  |  |  |  |  |  |  |  |  | IC50 (A549 cell line; Homo sapiens, A549, 96 hours, CellTiter Glo): 0.03 to 0.06 µM; CD31 IHC (counts per mm^2) (CT26 tumors; 47.2 μg single IT, 24 h): 163 counts per mm^2 and 111 counts per mm^2; H&E Necrotic tumor area (%) (CT26 tumors; 47.2 μg single IT, 24 h): 40% and 70%; tumors with reduction of CD31 density (CT26 tumors; 47.2 μg, 7h): 2 out of 3; CD31 IHC (counts per mm^2) (CT26 tumors; 141.6 μg single IT, 24 h): 176 counts per mm^2 and 29 counts per mm^2 and 72 counts per mm^2; H&E Necrotic tumor area (%) (CT26 tumors; 141.6 μg single IT, 24 h): 80% (2×) and 90%; CD31 IHC (counts per mm^2) (CT26 tumors; 472 μg single IT, 1 h): 577 counts per mm^2 and 457 counts per mm^2 and 463 counts per mm^2; H&E Necrotic tumor area (%) (CT26 tumors; 472 μg single IT, 1 h): 5% and 3% and 0%; CD31 IHC (counts per mm^2) (CT26 tumors; 472 μg single IT, 7 h): 188 counts per mm^2 and 536 counts per mm^2 and 179 counts per mm^2; H&E Necrotic tumor area (%) (CT26 tumors; 472 μg single IT, 7 h): 10% and 0% and 25%; CD31 IHC (counts per mm^2) (CT26 tumors; 472 μg single IT, 24 h): 155 counts per mm^2 and 187 counts per mm^2 and 118 counts per mm^2; H&E Necrotic tumor area (%) (CT26 tumors; 472 μg single IT, 24 h): 40% and 30% and 90%; massive cell death in tumors (CT26 tumors; all three doses, 24h): up to 90% |
| CC1=C[C@H]2[C@@]3(O)[C@H](C)C[C@]4(OC(=O)[C@H](N)C(C)(C)c5ccc(C(F)(F)F)cc5)[C@H]([C@@H]3C=C(CO)C[C@]2(O)C1=O)C4(C)C | 0.2 to 0.6 | 2.75 | 100 to 200 | 0.49 | 100 to 200 | 3.88 | 10 to 30 | 0.1 to 0.2 | 10 to 30 | 10 to 30 | 10 to 30 |  |
| CC1=C[C@H]2[C@@]3(O)[C@H](C)C[C@]4(OC(=O)[C@H](N)CCCCCCCCc5ccccc5)[C@H]([C@@H]3C=C(CO)C[C@]2(O)C1=O)C4(C)C | 0.01 to 0.03 |  |  |  |  |  |  |  | 10 to 30 | 10 to 30 | 10 to 30 |  |
| CC1=C[C@H]2[C@@]3(O)[C@H](C)C[C@]4(OC(=O)[C@@H](N)CCCCCCc5ccc(C(F)F)cc5)[C@H]([C@@H]3C=C(CO)C[C@]2(O)C1=O)C4(C)C | 0.1 to 0.2 |  |  |  |  |  |  |  | 10 to 30 |  | 10 to 30 |  |
| CCCCCCCCCCCCCC(=O)O[C@@H]1[C@@H](C)[C@@]2(O)[C@@H](C=C(CO)C[C@]3(O)C(=O)C(C)=C[C@@H]23)[C@@H]2C(C)(C)[C@]12OC(C)=O [Compound K103, 12-O-Tetradecanoylphorbol-13-acetate, reference compound] |  |  |  |  |  |  |  |  | < 5 | < 5 | < 5 | Ki [2]: < 5 nM; IC50 (A549 cell line; 96 hours, CellTiter Glo): < 0.01 µM |
